Data reported in patent US9180115B2, “Cyclohexylamines” (Asana Biosciences, LLC, priority 2011, dated 2015).
Values belong to the compound of their own block, whether it stands above or below them.

System: sodium channel response in hTRPV1-N1E115 cells
Assay: FLIPR membrane potential assay of sodium channel response in hTRPV1-N1E115 cells with or without heat (47° C.) activation
Assay type: cell-based
Conditions: for hTRPV1-N1E Nav 0.1 mM (% inhibition) 25° C. / hTRPV1-N1E Nav 1 mM (% inhibition) 25° C.: 25° C. (no heat activation); for hTRPV1-N1E Nav 0.1 mM (% inhibition) 47° C. / hTRPV1-N1E Nav 1 mM (% inhibition) 47° C.: 47° C. (heat activated); for IC50: 47° C., read-out: hTRPV1-N1E IC50 (μM) 47° C.
Source text: In one embodiment, a modified FLIPR® (Fluorometric Imaging Plate Reader) based assay system was developed which is capable of discriminating between non-specific versus hTRPV1-mediated entry of test compounds. Advantageously, the assay system utilizes heat activated opening of hTRPV1 channels followed by an assessment of internal sodium channel block. The assay allows a permanently charged compound to selectively enter through opened hTRPV1 channels and that compound's potency in inhibiting sodium channels from the cytoplasm side of the same cell can be assessed and quantified.
The test compounds are diluted in the Assay Buffer and added to each well of a specific 384-well ‘compound plate’, which serves as a source plate for compound addition using the FLIPR® platform. The concentration of compounds in the compound-plate was adjusted to achieve the desired final concentration when added to the cells in the ‘cell-plate’. After completion of the dye incubation period, the dye loaded cell-plates and the compound source plates are inserted into the FLIPR® Tetra device with a 384 FLIPR® tip box (Molecular Devices, Inc.) according to manufacturer's instructions. The compounds are robotically added to the dye loaded cell-plates using software integral to the FLIPR® Tetra instrument.
Immediately following compound addition, hTRPV1 is activated, in one of the duplicate cell plates, by heating. Specifically, entire multi-well plate containing the compound-cells mixture is incubated at 47° C. for 10 minutes, after which they are returned to room temperature (about 25° C.) for a further 30 minutes. Heat activation of hTRPV1 was omitted from the replicate cell plate which was simply maintained at room temperature for the entire 40 minutes.
A membrane potential response is elicited in the dye- and compound-loaded cells by the addition of veratridine which is a known sodium channel ‘agonist’. As illustrated in an example herein, an agonist plate containing veratridine (Sigma) is prepared in advance and is inserted into suitable devices such as, e.g., the FLIPR® TETRA device for a “2nd addition” as instructed by the manufacturer. The concentration of veratridine in the ‘agonist plate’ was adjusted to achieve a final concentration of 100 μM when added to the cells in the cell-plate. Final concentrations of veratridine greater or lesser than 100 μM may also be used but the signal measured by the FLIPR® TETRA device or another suitable device may vary accordingly.
The exposure of the cells in the cell-plate to veratridine induces sodium channels in the cells to open and the resulting ion flux produces a membrane potential depolarization that is detected as a fluorescence signal by the FLIPR® Tetra Device. The activity of test compounds is determined by their ability to attenuate the veratridine-induced fluorescence signal, the most promising compounds are those that show an enhanced activity in the heat-activated cell plate over the non-heat-activated cell plate. This differential activity reflects enhanced compound uptake via the heat activated and open hTRPV1 channels and rests on the fact that sodium channel block requires test compounds to act from the cytoplasmic side of the cell membrane.
In vitro assays were developed for assessing the inhibition of sodium channel response with compounds following stimulation by heat (47° C.) in cells expressing hTRPV1.
(v) Membrane potential Assay to Assess Sodium Channel Function in hTRPV1-Expressing Cells • Cells were plated at 5000 per 50 μL [DMEM+10% FBS+300 μg/mL H\hygromycin] per well, in a 384 clear bottom poly-D-lysine coated plate and incubated at 37° C. and 5% CO2 for 48 hours. On the day of the assay, media were discarded gently and 30 μL of the dye [FMP blue dye was prepared in assay buffer] per well was added and dye-loading was allowed to proceed for 20 min at room temperature. […]

IC50: 10 to 100 µM
Compound: Cc1ccc(C(=O)OC(C)C[N+](C)(C)C2CCCCC2)c(C)c1.[I-] (stereo not shown) [Example 45, N-[2-((2,4-Dimethylbenzoyl)oxy)propyl]-N,N-dimethylcyclo-hexanaminium iodide]
hTRPV1-N1E Nav 0.1 mM (% inhibition) 25° C.: 4 (N = 4) % | hTRPV1-N1E Nav 0.1 mM (% inhibition) 47° C.: 72 (N = 4) % | hTRPV1-N1E Nav 1 mM (% inhibition) 25° C.: 46 (N = 4) % | hTRPV1-N1E Nav 1 mM (% inhibition) 47° C.: 83 (N = 4) %

IC50: 100 to 1000 µM
Compound: Cc1ccccc1C(=O)OC(C)C[N+](C)(C)C1CCCCC1.[I-] (stereo not shown) [Example 11, N,N-Dimethyl-N-[2-((2-methylbenzoyl)oxy)propyl] cyclohexanaminium iodide]
hTRPV1-N1E Nav 0.1 mM (% inhibition) 25° C.: 16 (N = 4) % | hTRPV1-N1E Nav 0.1 mM (% inhibition) 47° C.: 40 (N = 4) %

IC50: 10 to 100 µM
Compound: Cc1ccc(C(=O)OC(C)C[N+](C)(C)C2CCCCC2)cc1.[I-] (stereo not shown) [Example 42, N,N-Dimethyl-N-[2-((4-methylbenzoyl)oxy)propyl] cyclohexanaminium iodide]
hTRPV1-N1E Nav 0.1 mM (% inhibition) 25° C.: 8 (N = 4) % | hTRPV1-N1E Nav 0.1 mM (% inhibition) 47° C.: 45 (N = 4) % | hTRPV1-N1E Nav 1 mM (% inhibition) 25° C.: 16 (N = 4) % | hTRPV1-N1E Nav 1 mM (% inhibition) 47° C.: 90 (N = 4) %

IC50: 10 to 100 µM
Compound: Cc1cc(C)c(C(=O)O[C@@H](C)C[N+](C)(C)C2CCCCC2)c(C)c1.[I-] [Example 22, (S)-N,N-Dimethyl-N-[2-((2,4,6-trimethylbenzoyl)oxy)propyl] cyclohexanaminium iodide]
hTRPV1-N1E Nav 0.1 mM (% inhibition) 25° C.: 33 (N = 4) % | hTRPV1-N1E Nav 1 mM (% inhibition) 25° C.: 91 (N = 4) %

IC50: 10 to 100 µM
Compound: Cc1cccc(C)c1C(=O)OC(C)C[N+](C)(C)C1CCC(C)CC1.[I-] (stereo not shown) [Example 36, N-[2-((2,6-Dimethylbenzoyl)oxy)propyl]-N,N,4-trimethylcyclo-hexanaminium iodide]
hTRPV1-N1E Nav 0.1 mM (% inhibition) 25° C.: 50 (N = 4) % | hTRPV1-N1E Nav 0.1 mM (% inhibition) 47° C.: 83 (N = 4) % | hTRPV1-N1E Nav 1 mM (% inhibition) 25° C.: 84 (N = 4) % | hTRPV1-N1E Nav 1 mM (% inhibition) 47° C.: 95 (N = 4) %

IC50: 10 to 100 µM
Compound: Cc1cccc(C)c1C(=O)O[C@@H](C)C[N+](C)(C)C1CCCCC1.[I-] [Example 23, (S)-N-[2-((2,6-Dimethylbenzoyl)oxy)propyl]-N,N-dimethyl-cyclohexanaminium iodide]
hTRPV1-N1E Nav 0.1 mM (% inhibition) 25° C.: 38 (N = 4) % | hTRPV1-N1E Nav 1 mM (% inhibition) 25° C.: 76 (N = 4) %

IC50: 10 to 100 µM
Compound: CC(C[N+](C)(C)C1CCCCC1)OC(=O)c1cccc(C(C)C)c1.[I-] (stereo not shown) [Example 26, N-[2-((3-Isopropylbenzoyl)oxy)propyl]-N,N-dimethylcyclo-hexanaminium iodide]
hTRPV1-N1E Nav 0.1 mM (% inhibition) 25° C.: 4 (N = 4) % | hTRPV1-N1E Nav 0.1 mM (% inhibition) 47° C.: 88 (N = 4) % | hTRPV1-N1E Nav 1 mM (% inhibition) 25° C.: 57 (N = 4) % | hTRPV1-N1E Nav 1 mM (% inhibition) 47° C.: 89 (N = 4) %

The remaining lines, values behind:

Compound: CC(C)(C)c1ccc(C(=O)OCC[N+](C)(C)C2CCCCC2)cc1.[I-] [Example 43, N-[2-((4-(tert-butyl)benzoyl)oxy)ethyl]-N,N-dimethylcyclo-hexanaminium iodide]
hTRPV1-N1E Nav 0.1 mM (% inhibition) 25° C.: 13 (N = 4) % | hTRPV1-N1E Nav 0.1 mM (% inhibition) 47° C.: 78 (N = 4) % | IC50: 10 to 100 µM

Compound: CC(C[N+](C)(C)C1CCCCC1)OC(=O)c1ccccc1Cl.[I-] (stereo not shown) [Example 9, N-[2-((2-Chlorobenzoyl)oxy)propyl]-N,N-dimethyl-cyclohexanaminium iodide]
hTRPV1-N1E Nav 0.1 mM (% inhibition) 25° C.: 16 (N = 4) % | hTRPV1-N1E Nav 0.1 mM (% inhibition) 47° C.: 67 (N = 4) %

Compound: Cc1cc(C)c(C(=O)OC(C)C[N+](C)(C)C2CCOCC2)c(C)c1.[I-] (stereo not shown) [Example 28, N,N-Dimethyl-N-[2-((2,4,6-trimethylbenzoyl)oxy)propyl]tetrahydro-2H-pyran-4-aminium iodide]
hTRPV1-N1E Nav 0.1 mM (% inhibition) 25° C.: 0 (N = 4) % | hTRPV1-N1E Nav 0.1 mM (% inhibition) 47° C.: 32 (N = 4) % | hTRPV1-N1E Nav 1 mM (% inhibition) 25° C.: 5 (N = 4) % | hTRPV1-N1E Nav 1 mM (% inhibition) 47° C.: 58 (N = 4) %

Compound: CC(C[N+](C)(C)C1CCCCC1)OC(=O)c1ccc(C(F)(F)F)cc1.[I-] (stereo not shown) [Example 21, N,N-Dimethyl-N-[2-((4-(trifluoromethyl)benzoyl)oxy)propyl] cyclohexanaminium iodide]
hTRPV1-N1E Nav 0.1 mM (% inhibition) 25° C.: 11 (N = 4) % | hTRPV1-N1E Nav 0.1 mM (% inhibition) 47° C.: 57 (N = 4) % | hTRPV1-N1E Nav 1 mM (% inhibition) 25° C.: 35 (N = 4) % | hTRPV1-N1E Nav 1 mM (% inhibition) 47° C.: 96 (N = 4) % | IC50: 100 to 1000 µM

Compound: CC(C[N+](C)(C)C1CCCCC1)OC(=O)c1ccccc1[N+](=O)[O-].[I-] (stereo not shown) [Example 18, N,N-Dimethyl-N-[2-((2-nitrobenzoyl)oxy)propyl] cyclohexanaminium iodide]
hTRPV1-N1E Nav 0.1 mM (% inhibition) 25° C.: 3 (N = 4) % | hTRPV1-N1E Nav 0.1 mM (% inhibition) 47° C.: 41 (N = 4) % | hTRPV1-N1E Nav 1 mM (% inhibition) 25° C.: 28 (N = 4) % | hTRPV1-N1E Nav 1 mM (% inhibition) 47° C.: 66 (N = 4) %

Compound: CC(C[N+](C)(C)C1CCCCC1)OC(=O)c1ccccc1F.[I-] (stereo not shown) [Example 8, N-[2-((2-Fluorobenzoyl)oxy)propyl]-N,N-dimethyl-cyclohexanaminium iodide]
hTRPV1-N1E Nav 0.1 mM (% inhibition) 25° C.: 14 (N = 4) % | hTRPV1-N1E Nav 0.1 mM (% inhibition) 47° C.: 38 (N = 4) % | hTRPV1-N1E Nav 1 mM (% inhibition) 25° C.: 22 (N = 4) % | hTRPV1-N1E Nav 1 mM (% inhibition) 47° C.: 53 (N = 4) %

Compound: Cc1cccc(C)c1C(=O)OCC[N+](C)(C)C1CCCCC1.[I-] [Example 40, N-[2-((2,6-Dimethylbenzoyl)oxy)ethyl]-N,N-dimethylcyclo-hexanaminium iodide]
hTRPV1-N1E Nav 0.1 mM (% inhibition) 25° C.: 10 (N = 4) % | hTRPV1-N1E Nav 0.1 mM (% inhibition) 47° C.: 43 (N = 4) % | hTRPV1-N1E Nav 1 mM (% inhibition) 25° C.: 12 (N = 4) % | hTRPV1-N1E Nav 1 mM (% inhibition) 47° C.: 80 (N = 4) %

Compound: CC(C[N+](C)(C)C1CCCCC1)OC(=O)c1cccs1.[I-] (stereo not shown) [Example 32, N,N-Dimethyl-N-[2-((thiophene-2-carbonyl)oxy)propyl] cyclohexanaminium iodide]
hTRPV1-N1E Nav 0.1 mM (% inhibition) 25° C.: 4 (N = 4) % | hTRPV1-N1E Nav 0.1 mM (% inhibition) 47° C.: 48 (N = 4) % | hTRPV1-N1E Nav 1 mM (% inhibition) 25° C.: 1 (N = 4) % | hTRPV1-N1E Nav 1 mM (% inhibition) 47° C.: 54 (N = 4) %

Compound: CCc1ccccc1C(=O)OC(C)C[N+](C)(C)C1CCCCC1.[I-] (stereo not shown) [Example 44, N-[2-((2-Ethylbenzoyl)oxy)propyl]-N,N-dimethylcyclo-hexanaminium iodide]
hTRPV1-N1E Nav 0.1 mM (% inhibition) 25° C.: 56 (N = 4) % | hTRPV1-N1E Nav 0.1 mM (% inhibition) 47° C.: 89 (N = 4) % | hTRPV1-N1E Nav 1 mM (% inhibition) 25° C.: 81 (N = 4) % | hTRPV1-N1E Nav 1 mM (% inhibition) 47° C.: 96 (N = 4) %

Compound: Cc1ccsc1C(=O)OC(C)C[N+](C)(C)C1CCCCC1.[I-] (stereo not shown) [Example 37, N,N-Dimethyl-N-[2-((3-methylthiophene-2-carbonyl)oxy)propyl] cyclohexanaminium iodide]
hTRPV1-N1E Nav 0.1 mM (% inhibition) 25° C.: 15 (N = 4) % | hTRPV1-N1E Nav 0.1 mM (% inhibition) 47° C.: 31 (N = 4) % | hTRPV1-N1E Nav 1 mM (% inhibition) 25° C.: 20 (N = 4) % | hTRPV1-N1E Nav 1 mM (% inhibition) 47° C.: 70 (N = 4) %
